Tests used:
[1] = Addition of hypericin to whole blood: standard blood chemistries, complete blood count, coagulation profile; parameters: species or system human; MCV / MCH / MCHC / Bilirubin (direct): unit not given here
Method: Triplicate samples of blood were drawn from two normal individuals directly into vacuum tubes. Into one set of tubes was added hypericin dissolved in 10% ethanol, 40% propylene glycol, 50% water to a final concentration of hypericin of 0.1 micrograms/ml of blood. A second set of tubes received hypericin at 1.0 micrograms/ml of blood. The final concentration of ethanol was 0.01% and of propylene glycol 0.04% in each sample, respectively. The third set served as an untreated control. Hypericin-treated and untreated samples were taken directly to a clinical laboratory for testing of standard blood chemistries, complete blood count, and a coagulation profile.

[2] = tested on: HIV-1; experiment: Syncytia assay, H9 cells infected with IIIb isolate of HIV co-cultured with Supt-1 cells; assay type: cell-based; settings: 24 hours
Method: In order to assess the effects of Hy and Ps on the ability of HIV to form syncytia, the following experiments were performed. For the analysis of HIV-1, an entry syncytia assay was performed by co-culturing H9 cells (described in Popovic, M. et al. Science 224: 497-500, 1984) infected with the IIIb isolate of HIV with uninfected Supt-1 cells (Walker, B. D. et al. Proc. Nat. Acad. Sci. (USA) 84: 8120-8124, 1987) as the target cell. HIV-2 was tested using HUT78 cells (obtained from the National Institute of Health by reference to Depository Catalog, Reagent Program, Bethesda, Md.) infected with the ROD-2 isolate of HIV-2 co-cultured with uninfected H9 target cells. The infected cells were plated in 96 well plates (10^4 cells per well in RPM1 1640 medium with 10% fetal calf serum) and incubated with or without dilutions of Ps or Hy for 30 minutes at 37° C. 1×10^5 target cells were then added per well and the number of syncytia were quantitatively and qualitatively determined after 24 hours.

Question: With `Cc1cc(O)c2c(=O)c3c(O)cc(O)c4c5c(O)cc(O)c6c(=O)c7c(O)cc(C)c8c1c2c(c34)c(c78)c65` [hypericin] as the compound, how does the “Ca^+” value ([1]; Subject #2, 0.1 micrograms/ml) read?
Answer: 9.5 mg/dL

Question: And the “Cl^-” value ([1]; Subject #2, 0.1 micrograms/ml)?
Answer: 108 meq/l

Question: What about the Creat ([1]; Subject #2, 0.1 micrograms/ml) of the same compound?
Answer: 0.7 mg/dL

Question: And the ESR ([1]; Subject #2, 0.1 micrograms/ml)?
Answer: 1 mm/hr

Question: And the Hb ([1]; Subject #2, 0.1 micrograms/ml)?
Answer: 13.0 gm/dl

Question: What about the Hct ([1]; Subject #2, 0.1 micrograms/ml) of the same compound?
Answer: 37.8%

Question: And the “K^+” value ([1]; Subject #2, 0.1 micrograms/ml)?
Answer: 4.4 meq/l

Question: What about the LDH ([1]; Subject #2, 0.1 micrograms/ml) of the same compound?
Answer: 110 IU/L

Question: What about the MCH ([1]; Subject #2, 0.1 micrograms/ml) of the same compound?
Answer: 31.4

Question: And the MCHC ([1]; Subject #2, 0.1 micrograms/ml)?
Answer: 34.4

Question: And the MCV ([1]; Subject #2, 0.1 micrograms/ml)?
Answer: 91.4

Question: And the “Na^+” value ([1]; Subject #2, 0.1 micrograms/ml)?
Answer: 140 meq/l

Question: What about the SGOT ([1]; Subject #2, 0.1 micrograms/ml) of the same compound?
Answer: 15 IU/L

Question: And the WBC ([1]; Subject #2, 0.1 micrograms/ml)?
Answer: 6.7 /cu mm

Question: What about the albumin ([1]; Subject #2, 0.1 micrograms/ml) of the same compound?
Answer: 4.5 gm/dl

Question: And the alk phos ([1]; Subject #2, 0.1 micrograms/ml)?
Answer: 51 IU/l

Question: And the cholestrol ([1]; Subject #2, 0.1 micrograms/ml)?
Answer: 133 mg/dL

Question: And the glucose ([1]; Subject #2, 0.1 micrograms/ml)?
Answer: 96 mg/dL

Question: And the lymphs ([1]; Subject #2, 0.1 micrograms/ml)?
Answer: 33.1%

Question: What about the monos ([1]; Subject #2, 0.1 micrograms/ml) of the same compound?
Answer: 4.9%

Question: And the neutr ([1]; Subject #2, 0.1 micrograms/ml)?
Answer: 62.0%

Question: What about the phosphate ([1]; Subject #2, 0.1 micrograms/ml) of the same compound?
Answer: 3.0 mg/dL

Question: What about the total protein ([1]; Subject #2, 0.1 micrograms/ml) of the same compound?
Answer: 6.4 g/dL

Question: What about the uric acid ([1]; Subject #2, 0.1 micrograms/ml) of the same compound?
Answer: 4.2 mg/dL

Question: What about the BUN ([1]; Subject #2, 1.0 micrograms/ml) of the same compound?
Answer: 8 mg/dL

Question: What about the Bilirubin ([1]; Subject #2, 1.0 micrograms/ml) of the same compound?
Answer: 0.5 mg/dL

Question: And the “Bilirubin (direct)” value ([1]; Subject #2, 1.0 micrograms/ml)?
Answer: 0.1

Question: What about the CO2 ([1]; Subject #2, 1.0 micrograms/ml) of the same compound?
Answer: 27 meq/l

Question: What about the “Ca^+” value ([1]; Subject #2, 1.0 micrograms/ml) of the same compound?
Answer: 9.5 mg/dL

Question: And the “Cl^-” value ([1]; Subject #2, 1.0 micrograms/ml)?
Answer: 108 meq/l

Question: What about the Creat ([1]; Subject #2, 1.0 micrograms/ml) of the same compound?
Answer: 0.6 mg/dL

Question: And the ESR ([1]; Subject #2, 1.0 micrograms/ml)?
Answer: 1 mm/hr

Question: What about the Hb ([1]; Subject #2, 1.0 micrograms/ml) of the same compound?
Answer: 12.9 gm/dl

Question: What about the Hct ([1]; Subject #2, 1.0 micrograms/ml) of the same compound?
Answer: 37.3%

Question: What about the “K^+” value ([1]; Subject #2, 1.0 micrograms/ml) of the same compound?
Answer: 4.5 meq/l

Question: What about the LDH ([1]; Subject #2, 1.0 micrograms/ml) of the same compound?
Answer: 97 IU/L

Question: And the MCH ([1]; Subject #2, 1.0 micrograms/ml)?
Answer: 31.6

Question: And the MCHC ([1]; Subject #2, 1.0 micrograms/ml)?
Answer: 34.6

Question: And the MCV ([1]; Subject #2, 1.0 micrograms/ml)?
Answer: 91.3

Question: And the “Na^+” value ([1]; Subject #2, 1.0 micrograms/ml)?
Answer: 141 meq/l

Question: And the SGOT ([1]; Subject #2, 1.0 micrograms/ml)?
Answer: 14 IU/L

Question: What about the WBC ([1]; Subject #2, 1.0 micrograms/ml) of the same compound?
Answer: 6.4 /cu mm

Question: What about the albumin ([1]; Subject #2, 1.0 micrograms/ml) of the same compound?
Answer: 4.4 gm/dl

Question: What about the alk phos ([1]; Subject #2, 1.0 micrograms/ml) of the same compound?
Answer: 52 IU/l

Question: And the cholestrol ([1]; Subject #2, 1.0 micrograms/ml)?
Answer: 131 mg/dL

Question: And the glucose ([1]; Subject #2, 1.0 micrograms/ml)?
Answer: 95 mg/dL

Question: What about the lymphs ([1]; Subject #2, 1.0 micrograms/ml) of the same compound?
Answer: 32.0

Question: What about the monos ([1]; Subject #2, 1.0 micrograms/ml) of the same compound?
Answer: 5.2%

Question: What about the neutr ([1]; Subject #2, 1.0 micrograms/ml) of the same compound?
Answer: 62.8%

Question: And the phosphate ([1]; Subject #2, 1.0 micrograms/ml)?
Answer: 3.1 mg/dL

Question: What about the total protein ([1]; Subject #2, 1.0 micrograms/ml) of the same compound?
Answer: 6.3 g/dL

Question: What about the uric acid ([1]; Subject #2, 1.0 micrograms/ml) of the same compound?
Answer: 4.1 mg/dL

Question: What about the “syncytia score (number 0-4, size S/M/L)” value ([2]; 7 nanograms) of the same compound?
Answer: 4 L

Question: What about the “syncytia score (number 0-4, size S/M/L)” value ([2]; 14 nanograms) of the same compound?
Answer: 4 L

Question: What about the “syncytia score (number 0-4, size S/M/L)” value ([2]; 28 nanograms) of the same compound?
Answer: 3 L

Question: What about the “syncytia score (number 0-4, size S/M/L)” value ([2]; 56 nanograms) of the same compound?
Answer: 0

Question: And the “syncytia score (number 0-4, size S/M/L)” value ([2]; 112 nanograms)?
Answer: 0

Question: What about the “syncytia score (number 0-4, size S/M/L)” value ([2]; 225 nanograms) of the same compound?
Answer: 0

Question: What about the “syncytia score (number 0-4, size S/M/L)” value ([2]; 450 nanograms) of the same compound?
Answer: 0

Question: And the “syncytia score (number 0-4, size S/M/L)” value ([2]; 900 nanograms)?
Answer: 0

Question: What about the “syncytia score (number 0-4, size S/M/L)” value ([2]; 1800 nanograms) of the same compound?
Answer: 0
